Data set [1] deals with Mycobacterium tuberculosis. In words: Antitubercular activity against Mycobacterium tuberculosis H37Rv after 5 days by microplate Alamar Blue assay. It counts as functional. The settings on record: 120 h.
For data set [2], the system named is RAW264.7. In words: Cytotoxicity against mouse RAW264.7 cells after 72 hrs by MTT assay. The class given is cell-based. Conditions: RAW264.7, 72 h.
A short description of data set [3]: Selectivity index, ratio of IC50 for mouse RAW264.7 cells to MIC for Mycobacterium tuberculosis H37Rv. The class given is toxicity. Conditions: read-out: Selectivity Index.
A short description of data set [4]: Cytotoxicity against mouse RAW264.7 cells at 50 uM after 72 hrs by MTT assay. The class given is cell-based. The settings on record: read-out: INH. (In general: Tetrazolium assays rely on reduction of a dye to a coloured formazan, in cell work by metabolically active cells.)

Converted amounts (≈) assume the structure as drawn.

What is called MIC99 is the lowest concentration that inhibits either 99% of growth or 99% of the strains tested, depending on the study. The IC50 is the concentration that inhibits the measured activity by half. A higher IC50 goes with a need for much substance. One may read the MIC as the smallest concentration in the dilution series that meets the test's criterion for growth inhibition.

In turn, `C(=C\c1ccccc1)/CN1CCN(c2nc3ccccc3c3ccccc23)CC1` yielded an MIC99 in data set [1] of 25 µg/mL (≈ 65.9 µM).

In the case of `C=Cc1ccc(CN2CCN(c3nc4ccccc4c4ccccc34)CC2)cc1`, the MIC99 in data set [1] was determined as 25 µg/mL (≈ 65.9 µM).

Regarding `c1ccc(C(c2ccccc2)N2CCN(c3nc4ccccc4c4ccccc34)CC2)cc1`, the MIC99 in data set [1] is 3.12 µg/mL (≈ 7.27 µM).

In data set [1], `O=C(O)c1cn(C2CC2)c2cc(N3CCN(C(=O)CN4CCN(c5nc6ccccc6c6ccccc56)CC4)CC3)c(F)cc2c1=O` displayed an MIC99 of 12.5 µg/mL (≈ 19.7 µM).

For the compound `O=[N+]([O-])c1ccc(N2CCN(c3nc4ccccc4c4ccccc34)CC2)cc1`, the half-inhibitory concentration (IC50) in data set [2] was > 40 µg/mL. In data set [3], the selectivity ratio is > 25. Besides, the MIC99 in data set [1] is 1.56 µg/mL (≈ 4.06 µM). In addition, the cytotoxicity at 72 h, 50 µM in data set [4] is 21.4%.

The compound `c1ccc(CCN2CCN(c3nc4ccccc4c4ccccc34)CC2)cc1` gave an MIC99 in data set [1] of 6.25 µg/mL (≈ 17 µM).

`CO[C@H]1/C=C/O[C@@]2(C)Oc3c(C)c(O)c4c(O)c(c(/C=N/N5CCN(C)CC5)c(O)c4c3C2=O)NC(=O)/C(C)=C\C=C\[C@H](C)[C@H](O)[C@@H](C)[C@@H](O)[C@@H](C)[C@H](OC(C)=O)[C@@H]1C` [RIFAMPIN] displayed an MIC99 in data set [1] of 0.02 µg/mL (≈ 0.0243 µM).

For `COc1ccc2cc(/C=N/Nc3ccnc4cc(OC)ccc34)ccc2c1`, the lowest concentration to inhibit growth in data set [1] (MIC) was 0.22 µg/mL (≈ 0.616 µM).

Regarding `Clc1ccccc1N1CCN(c2nc3ccccc3c3ccccc23)CC1`, the MIC99 in data set [1] stood at 6.25 µg/mL (≈ 16.7 µM).

In turn, `Clc1ccc(N2CCN(c3nc4ccccc4c4ccccc34)CC2)cc1` had an MIC99 in data set [1] of 50 µg/mL (≈ 134 µM).

With `COc1ccc2nc(C)cc(SCc3ccc(C(C)(C)C)cc3)c2c1`, the minimum inhibitory concentration (MIC) in data set [1] amounted to 0.01 µg/mL (≈ 0.0284 µM).

In data set [1], `COc1cccc(N2CCN(c3nc4ccccc4c4ccccc34)CC2)c1` gave an MIC99 of 12.5 µg/mL (≈ 33.8 µM).

For `Oc1cccc(N2CCN(c3nc4ccccc4c4ccccc34)CC2)c1`, the MIC99 in data set [1] was 3.12 µg/mL (≈ 8.79 µM).

Consider `c1cnc(N2CCN(c3nc4ccccc4c4ccccc34)CC2)nc1`, for which the 50% inhibitory concentration (IC50) in data set [2] was > 40 µg/mL. Further, the selectivity ratio in data set [3] was > 25. The same compound came in with an MIC99 in data set [1] of 1.56 µg/mL (≈ 4.57 µM). Moreover, the cytotoxicity at 72 h, 50 µM in data set [4] came to 18.2%.

`c1ccc2c(c1)nc(N1CCNCC1)c1ccccc12` had an MIC99 in data set [1] of 25 µg/mL (≈ 94.9 µM).

For `CCN1CCN(c2nc3ccccc3c3ccccc23)CC1`, the MIC99 in data set [1] came out at 6.25 µg/mL (≈ 21.4 µM).

For `c1ccc(N2CCN(c3nc4ccccc4c4ccccc34)CC2)nc1`, in data set [2], the IC50 is > 40 µg/mL. The selectivity ratio in data set [3] was > 25. Further, the MIC99 in data set [1] came out at 1.56 µg/mL (≈ 4.58 µM). In data set [4], the cytotoxicity at 72 h, 50 µM came out at 16.4%.

For `N#Cc1ccccc1N1CCN(c2nc3ccccc3c3ccccc23)CC1`, the MIC99 in data set [1] was 50 µg/mL (≈ 137 µM).

`Cc1cccc(N2CCN(c3nc4ccccc4c4ccccc34)CC2)c1` gave an MIC99 in data set [1] of 6.25 µg/mL (≈ 17.7 µM).

Regarding `CN1CCN(c2nc3ccccc3c3ccccc23)CC1`, the MIC99 in data set [1] stood at 6.25 µg/mL (≈ 22.5 µM).

In data set [1], `NNC(=O)c1ccncc1` [ISONIAZID] returned an MIC99 of 0.36 µg/mL (≈ 2.63 µM).

(Values after ChEMBL document CHEMBL3112471, “Synthesis and evaluation of anti-tubercular activity of 6-(4-substitutedpiperazin-1-yl) phenanthridine analogues” (Eur J Med Chem, 2014).)
